Results on 23 molecules are retold here after patent publication US20200405697A1, “Antitumor Agent” (Taiho Pharmaceutical Co., Ltd, priority 2017, published 2020).

SMILES strings stand for the structures.

The assay has as its target T1, human RNR (histidine tagged human M1 and human M2 proteins) (Homo sapiens, UniProt P23921).
T1 construct: made in house; host or cells: Escherichia coli
T1 sequence (P23921 1-792): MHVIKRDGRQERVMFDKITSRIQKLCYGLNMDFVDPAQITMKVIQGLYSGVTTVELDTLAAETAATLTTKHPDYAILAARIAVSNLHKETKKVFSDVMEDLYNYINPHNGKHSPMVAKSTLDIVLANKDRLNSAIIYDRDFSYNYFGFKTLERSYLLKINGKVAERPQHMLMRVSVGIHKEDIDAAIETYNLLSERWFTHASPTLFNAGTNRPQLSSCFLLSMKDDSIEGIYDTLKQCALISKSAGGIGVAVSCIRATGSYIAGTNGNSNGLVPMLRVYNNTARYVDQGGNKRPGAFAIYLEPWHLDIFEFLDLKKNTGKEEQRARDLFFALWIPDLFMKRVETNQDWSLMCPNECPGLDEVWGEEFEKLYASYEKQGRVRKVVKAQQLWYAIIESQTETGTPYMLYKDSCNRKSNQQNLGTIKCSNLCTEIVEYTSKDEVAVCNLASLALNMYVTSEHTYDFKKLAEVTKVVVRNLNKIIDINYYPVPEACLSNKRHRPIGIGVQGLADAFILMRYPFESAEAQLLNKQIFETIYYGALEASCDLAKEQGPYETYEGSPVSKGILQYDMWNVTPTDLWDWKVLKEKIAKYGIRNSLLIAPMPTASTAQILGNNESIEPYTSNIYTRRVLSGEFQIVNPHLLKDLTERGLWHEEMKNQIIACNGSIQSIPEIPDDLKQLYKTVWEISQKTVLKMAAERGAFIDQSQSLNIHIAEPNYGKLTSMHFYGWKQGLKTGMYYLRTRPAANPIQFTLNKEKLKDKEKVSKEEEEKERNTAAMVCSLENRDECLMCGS
Put plainly: Human RNR inhibition effect (dCDP formation from CDP). It counts as biochemical. To be noted: 10 μM CDP, 37° C. for 30 minutes, read-out: RNR inhibitory activity IC50. In outline:
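His-tagged human M1 (isoform 1) and N-terminal 59-aa-truncated M2 (isoform 2), E. coli-expressed, Ni-purified, preincubated 20 min with compound (1% DMSO). Reaction with 10 μM CDP, 2 mM ATP, 0.24 mM NADPH, 6 mM DTT, 4 mM Mg acetate, 100 mM KCl, 50 mM HEPES pH 7.2, 30 min at 37° C. dCDP formed quantified by reverse-phase HPLC after heat stop.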
Consider `Cc1ccc(F)c([C@@H](C)[C@H](NS(=O)(=O)c2ccc3c(c2)C(=O)CCO3)c2n[nH]c(=O)o2)c1C` [Example 179, N-((1S,2R)-2-(6-fluoro-2,3-dimethylphenyl)-1-(5-oxo-4,5-dihydro-1,3,4-oxadiazol-2-yl)propyl)-4-oxochroman-6-sulfonamide], for which the IC50 was found to be 280 nM. Then `Cc1ccc(F)c([C@@H](C)[C@H](NS(=O)(=O)c2ccc(Cl)c(C(=O)N(C)C)n2)c2n[nH]c(=O)o2)c1C` [Example 253, 3-chloro-6-(N-((1S,2R)-2-(6-fluoro-2,3-dimethylphenyl)-1-(5-oxo-4,5-dihydro-1,3,4-oxadiazol-2-yl)propyl)sulfamoyl)-N,N-dimethylpicolinamide], with 80 nM. Then `COc1cc(Cl)ccc1S(=O)(=O)N[C@H](c1n[nH]c(=O)o1)[C@H](C)c1c(F)ccc(-c2cccnc2)c1C` [Example 300, 4-chloro-N-((1S,2R)-2-(6-fluoro-2-methyl-3-(pyridin-3-yl)phenyl)-1-(5-oxo-4,5-dihydro-1,3,4-oxadiazol-2-yl)propyl)-2-methoxybenzenesulfonamide], with 340 nM; and `COc1cc(Cl)cnc1S(=O)(=O)N[C@H](c1n[nH]c(=O)o1)[C@H](C)c1c(F)ccc(C)c1C` [Example 112, 5-chloro-N-((1S,2R)-2-(6-fluoro-2,3-dimethylphenyl)-1-(5-oxo-4,5-dihydro-1,3,4-oxadiazol-2-yl)propyl)-3-methoxypyridine-2-sulfonamide], with 150 nM; and `Cc1ccc(S(=O)(=O)N[C@H](c2n[nH]c(=O)o2)[C@H](C)c2c(F)ccc3ccccc23)c(C(N)=O)c1` [Example 12, 2-(N-((1S,2R)-2-(2-Fluoronaphthalen-1-yl)-1-(5-oxo-4,5-dihydro-1,3,4-oxadiazol-2-yl)propyl)sulfamoyl)-5-methylbenzamide], with 170 nM.

Take `Cc1ccc(F)c([C@@H](C)[C@H](NS(=O)(=O)c2ccc(Cl)c(C(=O)O)n2)c2n[nH]c(=O)o2)c1C` [Example 215, 3-chloro-6-(N-((1S,2R)-2-(6-fluoro-2,3-dimethylphenyl)-1-(5-oxo-4,5-dihydro-1,3,4-oxadiazol-2-yl)propyl)sulfamoyl)picolinic acid]: the IC50 came out at 190 nM. Take `Cc1c(Cl)ccc(F)c1[C@@H](C)[C@H](NS(=O)(=O)c1ccc(Cl)c2c1OCCC2(C)N)c1n[nH]c(=O)o1` (mixture of isomers) [Example 328, 4-amino-5-chloro-N-((1S,2R)-2-(3-chloro-6-fluoro-2-methylphenyl)-1-(5-oxo-4,5-dihydro-1,3,4-oxadiazol-2-yl)propyl)-4-methylchroman-8-sulfonamide]: the IC50 was determined as 110 nM. Consider `Cc1ccc(F)c([C@@H](C)[C@H](NS(=O)(=O)c2ccc(Cl)cc2C(=O)NCCO)c2n[nH]c(=O)o2)c1C` [Example 248, 5-chloro-2-(N-((1S,2R)-2-(6-fluoro-2,3-dimethylphenyl)-1-(5-oxo-4,5-dihydro-1,3,4-oxadiazol-2-yl)propyl)sulfamoyl)-N-(2-hydroxyethyl)benzamide], for which the IC50 is 270 nM. Take `Cc1ccc(F)c([C@@H](C)[C@H](NS(=O)(=O)c2cccc3c2OCCN3C(=O)C2CC2)c2n[nH]c(=O)o2)c1C` [Example 99, 4-(cyclopropanecarbonyl)-N-((1S,2R)-2-(6-fluoro-2,3-dimethylphenyl)-1-(5-oxo-4,5-dihydro-1,3,4-oxadiazol-2-yl)propyl)-3,4-dihydro-2H-benzo[b][1,4]oxazine-8-sulfonamide]: the IC50 turned out to be 290 nM. Then `Cc1ccc(F)c([C@@H](C)[C@H](NS(=O)(=O)c2ncc(Br)cc2C(N)=O)c2n[nH]c(=O)o2)c1C` [Example 250, 5-bromo-2-(N-((1S,2R)-2-(6-fluoro-2,3-dimethylphenyl)-1-(5-oxo-4,5-dihydro-1,3,4-oxadiazol-2-yl)propyl)sulfamoyl)nicotinamide], with 20 nM; and `Cc1ccc(F)c([C@@H](C)[C@H](NS(=O)(=O)c2cc(C(=O)N(C)C)ccc2C(N)=O)c2n[nH]c(=O)o2)c1C` [Example 37, 3-(N-((1S,2R)-2-(6-fluoro-2,3-dimethylphenyl)-1-(5-oxo-4,5-dihydro-1,3,4-oxadiazol-2-yl)propyl)sulfamoyl)-N1,N1-dimethylterephthalamide], with 140 nM. `COc1cc(Cl)ccc1S(=O)(=O)N[C@H](c1n[nH]c(=O)o1)C(C)c1c(F)c(F)cc(C)c1Br` (stereo partly drawn) [Example 89, N-((1S)-2-(2-bromo-5,6-difluoro-3-methylphenyl)-1-(5-oxo-4,5-dihydro-1,3,4-oxadiazol-2-yl)propyl)-4-chloro-2-methoxybenzenesulfonamide]: the IC50 was determined as 420 nM.

As for `Cc1ccc(F)c([C@@H](C)[C@H](NS(=O)(=O)c2ncc(Cl)cc2C(N)=O)c2n[nH]c(=O)o2)c1C` [Example 245, 5-chloro-2-(N-((1S,2R)-2-(6-fluoro-2,3-dimethylphenyl)-1-(5-oxo-4,5-dihydro-1,3,4-oxadiazol-2-yl)propyl)sulfamoyl)nicotinamide], the IC50 was 40 nM.

Consider `COc1c(S(=O)(=O)N[C@H](c2n[nH]c(=O)o2)[C@H](C)c2c(F)ccc(C)c2C)ccc(Cl)c1C(C)O` (single isomer, unassigned) [Example 208A], for which the IC50 amounted to 100 nM. Under `Cc1c(Br)ccc(F)c1[C@@H](C)[C@H](NS(=O)(=O)c1ccc(C(F)(F)F)cc1C(N)=O)c1n[nH]c(=O)o1` [Example 42, 2-(N-((1S,2R)-2-(3-bromo-6-fluoro-2-methylphenyl)-1-(5-oxo-4,5-dihydro-1,3,4-oxadiazol-2-yl)propyl)sulfamoyl)-5-(trifluoromethyl)benzamide] stands 200 nM; under `Cc1ccc(F)c([C@@H](C)[C@H](NS(=O)(=O)c2c(F)cccc2F)c2n[nH]c(=O)o2)c1C` [Example 110, 2,6-difluoro-N-((1S,2R)-2-(6-fluoro-2,3-dimethylphenyl)-1-(5-oxo-4,5-dihydro-1,3,4-oxadiazol-2-yl)propyl)benzenesulfonamide], 960 nM; under `Cc1ccc(F)c([C@@H](C)[C@H](NS(=O)(=O)c2ccc(Cl)c3c2OCCC3(C)O)c2n[nH]c(=O)o2)c1C` (single isomer, unassigned) [Example 207B], 90 nM. Under `CCN1CCOc2c(S(=O)(=O)N[C@H](c3n[nH]c(=O)o3)[C@H](C)c3c(F)ccc(C)c3C)ccc(Cl)c21` [Example 94, 5-chloro-4-ethyl-N-((1S,2R)-2-(6-fluoro-2,3-dimethylphenyl)-1-(5-oxo4,5-dihydro-1,3,4-oxadiazol-2-yl)propyl)-3,4-dihydro-2H-benzo[b][1,4]oxazine-8-sulfonamide] stands 110 nM; under `COc1cc(Cl)ccc1S(=O)(=O)N[C@H](c1n[nH]c(=O)o1)[C@H](C)c1c(F)ccc(-c2ccc(N3CCOCC3)nc2)c1C` [Example 315, 4-chloro-N-((1S,2R)-2-(6-fluoro-2-methyl-3-(6-morpholinopyridin-3-yl)phenyl)-1-(5-oxo-4,5-dihydro-1,3,4-oxadiazol-2-yl)propyl)-2-methoxybenzenesulfonamide], 190 nM; under `Cc1ccc(F)c([C@@H](C)[C@H](NS(=O)(=O)c2ccc(Cl)c(-c3nnn[nH]3)c2)c2n[nH]c(=O)o2)c1C` [Example 161, 4-chloro-N-((1S,2R)-2-(6-fluoro-2,3-dimethylphenyl)-1-(5-oxo-4,5-dihydro-1,3,4-oxadiazol-2-yl)propyl)-3-(1H-tetrazol-5-yl)benzenesulfonamide], 280 nM. In the case of `CCn1cc(-c2ccc(F)c([C@@H](C)[C@H](NS(=O)(=O)c3ccc(Cl)cc3OC)c3n[nH]c(=O)o3)c2C)cn1` [Example 310, 4-chloro-N-((1S,2R)-2-(3-(1-ethyl-1H-pyrazol-4-yl)-6-fluoro-2-methylphenyl)-1-(5-oxo-4,5-dihydro-1,3,4-oxadiazol-2-yl)propyl)-2-methoxybenzenesulfonamide], the IC50 was 170 nM.

For the molecule `Cc1ccc(F)c([C@@H](C)[C@H](NS(=O)(=O)c2ccc3c(c2)N(C)CCC3)c2n[nH]c(=O)o2)c1C` [Example 184, N-((1S,2R)-2-(6-fluoro-2,3-dimethylphenyl)-1-(5-oxo-4,5-dihydro-1,3,4-oxadiazol-2-yl)propyl)-1-methyl-1,2,3,4-tetrahydroquinoline-7-sulfonamide], the IC50 is 220 nM.

In the case of `Cc1ccc(F)c([C@@H](C)[C@H](NS(=O)(=O)c2ccc(Cl)c3c2OCCC3(O)C(F)(F)F)c2n[nH]c(=O)o2)c1C` (single isomer, unassigned) [Example 220A], the IC50 was 60 nM.
